One may read the melting point as the temperature of the solid-liquid transition.

This is an account of results in a melting point compilation (Tetko et al.; mined from patent text by program, amines drawn as free bases though some values may be those of a salt).

The molecule `CC(C)c1nc(CCCl)n(C)c1Sc1cc(Cl)cc(Cl)c1` gave a melting point of 101 to 102 °C.

With `O=C(O)C(Oc1ccc(Cl)cc1)Oc1ccc(C2CCNc3ccccc32)cc1` (stereo not given), the melting point was 152 to 155 °C.

With `O=[N+]([O-])c1cc(NCc2c(F)c(F)c(C(F)(F)F)c(F)c2F)ccc1O`, the melting point lay in the range of 126 to 128 °C.

Turning to `Cc1cc(NCC(C)C)c([N+](=O)[O-])c2nnnn12`, the melting point lay within 185 to 187 °C.

With `CCCCCCCCCCCCCCCCCCCCCCOC(=O)P(=O)(O)O`, the melting point fell in the range of 92 to 93 °C.

In turn, `CCOC(=O)COc1ccc(-c2cc(O)c(SCCc3ccccc3)c(=O)o2)cc1` showed a melting point of 169 to 171 °C.

The molecule `O=Cc1ccc(Br)cc1C=O` displayed a melting point of 97 to 100 °C.

With `Cc1ccc(C2CC(C(C)(C)C)=NN2c2ccc(C(=O)O)cc2)cc1` (stereo not given), the melting point turned out to be 195 °C.

Turning to `CC(C)(C)OC(=O)c1ccc(C=Cc2cnc3nc(N)nc(N)c3c2)cc1`, the melting point is > 350 °C.

In turn, `CNC(=O)CCC(=O)c1ccc(OCC(O)CNC(C)C)cc1` (stereo not given) registered a melting point of 175 to 178 °C.

With `COc1ccc2c(c1)c(CC(=O)OCC(=O)O)c(C)n2C(=O)c1c(F)cccc1F`, the melting point is 186 °C.

`O=C1N=c2ccccc2=N1`: the melting point is 138 to 140 °C.

The molecule `CC(=NO)C1CC(Cn2ccnc2)(c2ccc(Cl)cc2)N(C)O1` (stereo not given) showed a melting point of 214 to 216 °C.

`CCCCOc1c(-c2ccnc3ccc(C(C)=O)cc23)cc(C(C)C)cc1C(C)C` displayed a melting point of 133 °C.

Turning to `CNC(=O)c1cc2ccccc2c(-c2cccc(I)c2)n1`, the melting point was 172 to 174 °C.

As for `O=S(=O)(Oc1ccc2ccc(OS(=O)(=O)C(F)(F)F)cc2c1)C(F)(F)F`, the melting point lay in the range of 60 to 62 °C.

The molecule `COC(=O)C(=O)c1cc2c3c(c1)CCN3CCC2` showed a melting point of 102 to 105 °C.

`N#Cc1cc(C(=O)NNC(=O)c2occc2-c2ccccc2Cc2ccccc2)ccc1O` registered a melting point of 175 to 176 °C.

Molecule `COC(=O)c1cc(=O)c2cc(OC)c(=O)ccc2n1C` gave a melting point of 181 to 183 °C.

With `CCCC(CCNC(=O)CC#N)NC(=O)CC#N` (stereo not given), the melting point stood at 141 °C.

Molecule `COc1ccc(-n2nc(C(F)(F)F)cc2CO)cc1` had a melting point of 79 °C.

`O=C(O)C(=O)c1ccc(-c2ccc(Cl)cc2)s1` showed a melting point of 339 to 343 °C.

`O=c1oc2c(c(O)c1C1(c3ccccc3)CCC1)CCCCCC2` showed a melting point of 240 to 241 °C.

Take `O=C(On1nnc2ccccc21)c1ccc2c(c1)OC(c1ccccc1)(c1ccccc1)O2`: the melting point fell in the range of 158 to 160 °C.

For the molecule `CCCC=Cc1ncn2c1CN(C)C(=O)c1cc(F)ccc1-2`, the melting point is 150 to 151 °C.

Take `O=C(O)Cc1c(C(=O)c2cc3ccccc3cn2)[nH]c2ccc(Cl)cc12`: the melting point was 239 to 240 °C.

In turn, `Cc1ccccc1-n1ccc2nnc3c(C)cccc3c21` displayed a melting point of 105 to 106 °C.

`O=C1CCC2(CCC(=O)N2c2ccc(Cc3ccc(N4C(=O)CCC45CCC(=O)O5)cc3)cc2)O1` (stereo not given): the melting point was 135 °C.

For the molecule `CCCCCCCCCCOc1ccc(OCCCC#CCOC)cc1`, the melting point lay in the range of 33 to 34 °C.

Turning to `c1ccc(N2CCN(c3nsc4nc5ccccc5n34)CC2)nc1`, the melting point lay in the range of 176 to 178 °C.

Turning to `CCOC(=O)c1c(N)n(C)c2ccccc12`, the melting point lay within 132 to 134 °C.

Turning to `CC(C)(C#N)c1cc(-n2cncc2C=O)cc(C(C)(C)C#N)c1`, the melting point lay within 108 to 111 °C.

Molecule `CNC(=O)c1cccc(NC(=O)Cc2ccc(F)cc2)c1` showed a melting point of 155 to 156 °C.

`COc1ccc(S(=O)(=O)Nc2cccc3c2Nc2ccccc2CO3)cc1` gave a melting point of 154 to 155 °C.

`CCOC(=O)CCn1c(=O)c2ccccc2n(CCCCCl)c1=O` came in with a melting point of 71 to 72 °C.

Consider `N=C(Nc1ccc(Cl)cc1)Nc1ncccc1OCc1ccccc1Cl`, for which the melting point lay within 162 to 163 °C.

In turn, `C#CCn1c(-c2cc(Cl)nc(Cl)c2)nc(O)c(CC)c1=O` had a melting point of 200 to 202 °C.

Molecule `CC(C)Cn1nc(OCCCc2ccc(OC(C)C)cc2Oc2ncc(C(F)(F)F)cc2Cl)cc1CCC(=O)O` showed a melting point of 71 to 73 °C.

As to `CCOc1cccc(NCCSCc2[nH]cnc2C)n1`, the melting point amounted to 172 °C.

`CCCOc1cccc(C2(c3ccncc3)N=C(N)N(C)C2=O)c1` (stereo not given) came in with a melting point of 173 to 175 °C.

`CCOC(=O)c1cccc(-c2cc(C(=O)OCC)c(N)[nH]2)c1` gave a melting point of 136 to 137 °C.

As to `CC(C)(C)c1nc(-c2ccc3ccccc3c2)c(-c2ccncc2)[nH]1`, the melting point was in the range of 218 to 220 °C.

Turning to `CC(=O)OCC1CC(OC(C)=O)C(n2cc(C(Cl)=CI)c(=O)[nH]c2=O)O1` (stereo not given), the melting point is 87 to 89 °C.

`COc1ccc2[nH]c(C)c(CC(N)=O)c2c1` came in with a melting point of 146 to 148 °C.

`CC1(CSC#N)SC2C(NC(=O)Cc3ccccc3)C(=O)N2C1C(=O)OCC(Cl)(Cl)Cl` (stereo not given) displayed a melting point of 133 to 135 °C.

As for `N#Cc1cnc2sc(-c3cccc(C=O)c3)cc2c1Nc1cccc2[nH]ccc12`, the melting point is > 245 °C.

For the molecule `CCCOc1ccc2[nH]c(-c3cc(C)c(O)c(C)c3)c(C)c2c1`, the melting point is 124 °C.

On to `Cc1nc2ccccc2c(=O)n1CCN1CCC(Nc2nc3ccccc3n2Cc2ccc(F)cc2)CC1`, for which the melting point was found to be 186 °C.

In turn, `COC1(c2nc3ccc(C)cc3s2)C=CC(=NS(=O)(=O)c2ccc(C)cc2)C=C1` (stereo not given) returned a melting point of 166 to 168 °C.

Regarding `CCC(=S)N1CCC[C@H]1C(=O)O`, the melting point was 123 to 124 °C.

For `CCOc1ccc(-c2nc(-c3ccc(OCC(=O)OC)c(C(=O)OC)c3)cs2)cc1OCC`, the melting point lay within 96 to 97 °C.

The molecule `Cc1cc2c(cc1N(C)C=O)N1CCN=C1S2` yielded a melting point of 164 °C.

For the molecule `CC(C)C(=O)N[C@@H](CSC(=O)C(C)C)C(=O)NCCSC(=O)C(C)(C)C`, the melting point lay in the range of 105 to 107 °C.

Molecule `CN1CCN(c2cccc3c2C[C@H](NC(=O)c2ccc(Br)cc2)CC3)CC1` had a melting point of 200 to 201 °C.

Molecule `CC(C)N(CCOc1ccc(-c2nnc(CSCCOc3ccccc3)o2)cc1)C(C)C` registered a melting point of 42 to 45 °C.

Consider `CCNc1nc(Nc2ccccc2)ncc1C=CC#N`, for which the melting point lay in the range of 244 to 246 °C.

Molecule `CNc1ncnc2c1ncn2C1CC(F)C(CO)O1` (stereo not given) yielded a melting point of 100 to 103 °C.

`Oc1ccc(C2CCOCC2)cc1Cl` showed a melting point of 123 to 125 °C.

The molecule `CNc1nc(C)c(-c2ccnc(Nc3cccc(CNC(C)=O)c3)n2)s1` had a melting point of 253 to 255 °C.

Molecule `CN(C)CCNC(=O)Cc1ccc(NC(=O)OCc2ccccc2)cc1` gave a melting point of 126 to 127 °C.

In turn, `Cc1ccc2c(c1C)OC(C)C(NNc1ncnc3c1ncn3C1OC(CO)C(O)C1O)C2` (stereo not given) came in with a melting point of 109 to 113 °C.

`O=S(=O)(c1ccccc1)c1ncc(C(F)(F)F)cc1Cl`: the melting point fell in the range of 86 to 87 °C.

Molecule `CCc1nc2cc(C)c(Cl)nc2n1-c1ccc(CCNC(=O)NS(=O)(=O)c2ccc(C)cc2)cc1` yielded a melting point of 205 to 206 °C.

As to `O=C1c2cccc(NC(=S)Nc3cnccn3)c2C2CCCCN12` (stereo not given), the melting point is 204 °C.

Turning to `Cc1cccc(-c2n[nH]cc2-c2ccnc(-c3ccc(Cl)cc3)c2)n1`, the melting point was 190 °C.

As for `O=C1N(CC2CCC2)c2ccccc2C1(O)c1ccc2c(c1)OCO2` (stereo not given), the melting point was 124 to 125 °C.

The molecule `Cc1cc2c(-c3ccc(Br)cc3)c(CC(=O)O)c(=O)oc2cc1Cl` registered a melting point of 238 to 239 °C.

Take `CC(C)(C)NC(=O)/C=C/c1ccc(C(=O)c2c(-c3ccc(O)cc3)sc3cc(O)ccc23)cc1`: the melting point lay in the range of 187 to 190 °C.

On to `O=C(O)CCC(=NOCc1ccc(OCc2ccccc2)cc1)c1ccccc1`, for which the melting point lay within 86 to 87 °C.

For the molecule `CC(C)OC(=O)c1ccc2c(c1)C(=O)CC(c1ccccc1)=N2`, the melting point is > 300 °C.

The molecule `O=C(CCCCCBr)c1c[nH]c2ccccc12` came in with a melting point of 150 to 151 °C.

For the molecule `O=S1(=O)Oc2ccccc2Nc2ncccc21`, the melting point fell in the range of 208 to 209 °C.

`O=C1NCN(c2ccccc2)C12CCN(CCCOc1ccc(F)cc1Cl)CC2` showed a melting point of 154 to 155 °C.

`O=C1N(CCN2CCC(c3noc4cc(F)ccc34)CC2)CCN1Cc1ccccc1` showed a melting point of 126 to 130 °C.

In the case of `COCCOc1ccc(CCCNS(C)(=O)=O)c(Oc2ncc(C(F)(F)F)cc2Cl)c1`, the melting point was 89 to 90 °C.

In the case of `Cc1cccc(C)c1NC(=O)CN1CCN(CCCC(c2ccc(F)cc2)c2ccc(F)cc2)CCN1`, the melting point is 145 to 148 °C.

In turn, `CC(C)NCC#CC(O)c1ccccc1-c1ccccc1` (stereo not given) had a melting point of 116 to 119 °C.

On to `Nc1cnc2c(F)c(F)ccc2c1`, for which the melting point was found to be 161 °C.

On to `Cc1ccc2c(c1)C(=O)N(CCN1CCC(c3noc4cc(F)ccc34)CC1)C2=O`, for which the melting point lay within 138 to 140 °C.

Take `O=C(O)C#CC(=O)c1ccc2c(c1)OCO2`: the melting point lay within 122 to 124 °C.

`O=C(Nc1ccnnc1)NC1CCCCCC1` had a melting point of 226 to 228 °C.

Take `FC(F)(F)c1cccc(-c2cc(C(F)(F)F)n3nccc3n2)c1`: the melting point was 96 °C.

`CCCc1c(OCCCCCc2ccc(O)c(O)c2)ccc(C(C)=O)c1O` showed a melting point of 126 to 127 °C.

Regarding `CN1CCN(c2ccc(-c3ccc4c(c3)C=C(C(=O)Nc3ccc(CN(C)C5CCOCC5)cc3)CCO4)cc2)CC1`, the melting point was 220 to 221 °C.

Molecule `COC(=O)c1c(C)c(OC)cc(O[Si](C)(C)C(C)(C)C)c1C=O` registered a melting point of 125 to 131 °C.

On to `C=CCc1cc(N2CCN(c3ccncc3)CC2)ccc1O`, for which the melting point fell in the range of 180 to 182 °C.

Regarding `Cc1cc2c(-c3ccccc3)c(COS(C)(=O)=O)n(C)c(=O)c2cc1C`, the melting point was in the range of 150 to 151 °C.

`O=C(NCCOc1ccc(CC(Oc2ccccc2)C(=O)O)cc1)c1ccc(-c2ccccn2)cc1` (stereo not given) came in with a melting point of 149 to 151 °C.

Turning to `Cn1nc(-c2ccc(F)cc2)c(-c2ccncc2)c1C(O)CCc1ccccc1` (stereo not given), the melting point is 62 to 65 °C.

On to `OC(CCCc1cccnc1)COc1ccc(C=Cc2ccccc2)cc1` (stereo not given), for which the melting point fell in the range of 110 to 111 °C.
